EC50, CC50 and solubility data for four compounds are collected here from ChEMBL document CHEMBL3632602, “Selenoacyclovir and Selenoganciclovir: Discovery of a New Template for Antiviral Agents” (J Med Chem, 2015).

Each structure is given as a SMILES string. Values after ≈ are worked out from the molar mass of the structure shown. Bounds are passed on as bounds.

The test system of data set [1] is Human alphaherpesvirus 1. In words: Antiviral activity against Herpes simplex virus 1 strain F VR-733 infected in African green monkey Vero cells after 3 days by MTT assay. The class given is functional, organism-based. Conditions: Human alphaherpesvirus 1, Strain F ATCC VR 733, Vero, 72 h. For orientation: Tetrazolium assays rely on reduction of a dye to a coloured formazan, in cell work by metabolically active cells.

Data set [2] relates to Human alphaherpesvirus 2. Kind of data set: Antiviral activity against Herpes simplex virus 2 strain MS VR-540 infected in African green monkey Vero cells after 3 days by MTT assay. The class given is functional, organism-based. The settings on record: Human alphaherpesvirus 2, MS VR-540, Vero, 72 h.
For data set [3], the system named is Human alphaherpesvirus 3. Kind of data set: Antiviral activity against Varicella-zoster virus Ellen VR-1367 infected in African green monkey Vero cells after 3 days by MTT assay. The class given is functional, organism-based. Conditions: Human alphaherpesvirus 3, Ellen VR-1367, Vero, 72 h.
The subject of data set [4] is Human betaherpesvirus 5. In words: Antiviral activity against Human cytomegalovirus Davis VR-807 infected in […] after 3 days by MTT assay. Type of data set: functional, organism-based. The settings on record: Human betaherpesvirus 5, Davis VR-807, 72 h.
A short description of data set [5]: Cytotoxicity against human HEL299 cells after 3 days by MTT assay. Type of data set: cell-based, HEL 299.
Data set [6] is described as follows: Solubility of compound in double-deionized water after 3 days by LC-MS/MS analysis. The class given is physicochemical.

The EC50 is the concentration needed to bring the measured effect to its halfway point. For orientation: CC50 means the concentration that lowers cell viability or growth by half. Broadly, the solubility is the dissolved amount per volume that the medium holds.

For the compound `Nc1nc2c(ncn2COC(CO)CO)c(=O)[nH]1` [GANCICLOVIR], the EC50 is 0.9 µM in data set [1], 1.4 µM in data set [2], 11.1 µM in data set [3] and 2.14 µM in data set [4]. The CC50 at 72 h in data set [5] is above 100 µM. The compound further gave a solubility at 72 h in data set [6] of 4960 µg/mL (≈ 19.4 mM).
For the compound `Nc1nc2c(ncn2C[Se]C(CO)CO)c(=O)[nH]1`, the EC50 in data set [1] was above 100 µM; in data set [2], above 100 µM; in data set [3] it was above 100 µM; in data set [4], 53.1 µM. For the same compound, the CC50 at 72 h in data set [5] was above 100 µM. Moreover, the concentration in solution in data set [6] (solubility at 72 h) came to 2230 µg/mL (≈ 7.01 mM).
For the compound `Nc1nc2c(ncn2C[Se]CCO)c(=O)[nH]1`, the EC50 was 1.47 µM in data set [1], 6.34 µM in data set [2], above 100 µM in data set [3] and above 100 µM in data set [4]. In data set [5], this compound came in with a CC50 at 72 h above 100 µM. The compound further came in with a solubility at 72 h in data set [6] of 1060 µg/mL (≈ 3.68 mM).
For `Nc1nc2c(ncn2COCCO)c(=O)[nH]1` [ACYCLOVIR], the EC50 amounted to 0.66 µM in data set [1], 1.02 µM in data set [2], 6.4 µM in data set [3] and 18.9 µM in data set [4]. The CC50 at 72 h in data set [5] is above 100 µM. The same compound gave a solubility at 72 h in data set [6] of 3920 µg/mL (≈ 17.4 mM).
